Assay results taken from patent US20220401481A1, “DOSING REGIMENS FOR THE MOBILIZATION OF HEMATOPOIETIC STEM AND PROGENITOR CELLS” (Magenta Therapeutics, Inc., priority 2019, published 2022).
Each block holds one substance with its values, some of them ahead of it.

Legend:
[1] = tested on: hematopoietic stem and progenitor cell mobilization; details: cited from earlier work
MMP-9 = experiment: Phase 1 clinical trial: plasma MMP-9 and TIMP-1 by sandwich immunoassay; assay type: in vivo, human; details: monotherapy, all six doses
Description: FIGS. 6A and 6B show the plasma levels of MMP-9 and molar ratio of MMP-9:TIMP-1, respectively, over the course of 24 hours following MGTA-145 monotherapy. MMP-9 is an enzyme involved in the breakdown of extracellular matrix and indicative of neutrophil migration whereas TIMP-1 blocks MMP-9 mediated migration. Therefore, an increase in MMP-9 or an increase in MMP-9:TIMP-1 ratio is indicative of increased neutrophil mobilization. […] The plasma levels of MMP-9 then decreased towards initial concentrations over the course of 24 hours.

[2] = tested on: neutrophil activation markers (L-selectin, CD11b, CD18, CD66); experiment: Phase 1 clinical trial: neutrophil activation markers by flow cytometry; assay type: in vivo, human; details: monotherapy
Source text: G-CSF, the traditional therapy of choice for mobilization of neutrophils, enhances neutrophil activation, as measured by CD11b and CD18, but this has been identified to be problematic, for example, in patients with sickle cell disease where activated neutrophils adhere to the endothelium, thereby increasing the risk of severe and life-threatening complications such as vaso-occlusive crises. […] In contrast, the administration of MGTA-145 monotherapy (across all six doses) induces less than a 2-fold change relative to baseline for the neutrophil activation markers of CD11b and CD18.

CXCR2 = molecular target: T1, CXCR2 (Homo sapiens, UniProt P25025); experiment: Phase 1 clinical trial: CXCR2 expression on peripheral blood neutrophils; assay type: in vivo
T1 construct: endogenous in cells; host or cells: peripheral blood neutrophils of trial subjects (in vivo dosing, ex vivo measurement)
T1 sequence (P25025 1-360): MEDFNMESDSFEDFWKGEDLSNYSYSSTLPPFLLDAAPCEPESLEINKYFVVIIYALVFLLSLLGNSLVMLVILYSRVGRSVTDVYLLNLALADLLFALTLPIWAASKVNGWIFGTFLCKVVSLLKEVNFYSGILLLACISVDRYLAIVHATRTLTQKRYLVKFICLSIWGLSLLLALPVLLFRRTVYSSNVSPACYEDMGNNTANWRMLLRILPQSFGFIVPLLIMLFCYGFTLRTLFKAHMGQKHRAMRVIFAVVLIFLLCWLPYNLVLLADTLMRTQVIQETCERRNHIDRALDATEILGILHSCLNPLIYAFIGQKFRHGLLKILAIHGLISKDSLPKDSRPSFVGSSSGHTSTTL
Description: Lines from bottom to top at 6 hrs post-administration represent 0.3 mg/kg, 0.15 mg/kg, 0.075 mg/kg, 0.03 mg/kg, 0.015 mg/kg, […], respectively.

[3] = tested on: relative engraftment (CRU); experiment: Primary and secondary transplantation of mobilized mouse cells at limit dilution (CRU); assay type: in vivo, mice; details: compared to the other cohorts
Source text: Mice (CD45.1) were mobilized according to the scheme shown in FIG. 24 and mobilized cells transplanted into CD45.2 mice at limit dilution.

neutrophils = experiment: Phase 1 clinical trial: mobilization of neutrophils (automated hematology analyzer); details: monotherapy
Description: (§1) The dose of MGTA-145 was one of 0.0075 mg/kg, 0.015 mg/kg, 0.03 mg/kg, 0.075 mg/kg, 0.15 mg/kg, or 0.3 mg/kg. […] The dose of MGTA-145 was one of 0.015 mg/kg, 0.03 mg/kg, 0.075 mg/kg, or 0.15 mg/kg. […] The dose of MGTA-145 was one of 0.03 mg/kg or 0.075 mg/kg.
(§2) Mobilization of white blood cells (WBCs), neutrophils, lymphocytes, basophils, and eosinophils was quantified by automated hematology analyzer.

white blood cells (WBCs) = experiment: Phase 1 clinical trial: mobilization of white blood cells (automated hematology analyzer); details: monotherapy
Description: as §1, §2

CD34+ cells = experiment: Phase 1 clinical trial: mobilization of CD34+ cells into peripheral blood (multicolor flow cytometry); details: for Peak CD34+ (#/μL) Median (range) / Percent ≥20/μL: Part A
CD34+CD90+CD45RA− cells = experiment: Phase 1 clinical trial: mobilization of CD34+CD90+CD45RA− cells into peripheral blood (flow cytometry); details: Part A monotherapy
[4] = higher doses (0.075, 0.15, 0.3 mg/kg), 2 hours post administration
[5] = lower doses (0.0075, 0.015, 0.03 mg/kg), between 1 and 2 hours post administration
[6] = MGTA-145 on Day 1, 0.03 mg/kg (n=4)
[7] = MGTA-145 on Day 1, 0.3 mg/kg (n=4)

Substance: Gro-β T N65D: Gro-β T with aspartic acid in place of asparagine at position 65, SEQ ID NO: 4 [reference compound]
- Potency (hematopoietic stem and progenitor cell mobilization) relative to Gro-β T ([1]; described in U.S. Pat. No. 6,447,766): substantially greater than that of Gro-β T

- CXCR2 expression recovery prior to the second dose (CXCR2; 0.07 mg/kg, staggered dosing, two consecutive days): ~80 % of baseline
- CXCR2 on peripheral blood neutrophils (CXCR2; monotherapy, followed by recovery over 24 hours): rapid downregulation
Substance: MGTA-145: CXCR2 agonist; truncated Gro-β with deletion of the first four N-terminal amino acids (SEQ ID NO: 2)
- Molar ratio of MMP-9:TIMP-1 (MMP-9): rapid increase 30 minutes post-administration
- Plasma levels of MMP-9 (MMP-9): increased sharply within 30 minutes post-administration
- Fold change relative to baseline, CD66 ([2]; all doses except the highest (0.3 mg/kg)): < 2 fold
- Fold change relative to baseline, CD11b and CD18 ([2]; all six doses): < 2 fold
- Fold change relative to baseline, L-selectin ([2]; all six doses): < 2 fold
- Engraftment rates, secondary transplantation [3]: vastly improved engraftment rates
- Potency to induce hematopoietic stem and progenitor cell mobilization relative to Gro-β ([1]; described in U.S. Pat. No. 6,080,398): superior to that of Gro-β by multiple orders of magnitude
- Initial plateau of neutrophil mobilization (neutrophils; [4]): 5-8 ×10^3 cells/μL
- Peak mobilization of neutrophils (neutrophils; [5]): 13-15 ×10^3 cells/μL
- Initial plateau of WBC mobilization (white blood cells (WBCs); [4]): 6-10 ×10^3 cells/μL
- Peak mobilization of WBCs (white blood cells (WBCs); [5]): 15-17 ×10^3 cells/μL
- Fold increase of CD34+ cells (CD34+ cells; Part A monotherapy, 0.03 mg/kg): 7 fold
- Peak concentration of CD34+ cells (CD34+ cells; Part A monotherapy, 0.03 mg/kg): ~10 cells/μL
- Time of peak CD34+ mobilization post administration (CD34+ cells; Part A monotherapy, across the six doses (0.0075-0.3 mg/kg)): about 30 minutes
- Fold increase of CD34+ cells (CD34+ cells; Part A monotherapy, the other doses): 2-3 fold
- Peak concentration of CD34+ cells (CD34+ cells; Part A monotherapy, the other doses (0.0075, 0.015, 0.075, 0.15, 0.3 mg/kg)): ~5 cells/μL
- Peak CD34+ (#/μL) Median (range) (CD34+ cells; [6]): 12 (2-19) #/μL
- Percent ≥20/μL (CD34+ cells; [6]): 0 (0/4) %
- Peak CD34+ (#/μL) Median (range) (CD34+ cells; [7]): 3 (3-13) #/μL
- Percent ≥20/μL (CD34+ cells; [7]): 0 (0/4) %
- Time of peak CD34+CD90+CD45RA− mobilization post administration (CD34+CD90+CD45RA− cells): 30 min
- Fold increase of CD34+CD90+CD45RA− cells (CD34+CD90+CD45RA− cells; 0.03 mg/kg): ~8.3 fold
- Peak concentration of CD34+CD90+CD45RA− cells (CD34+CD90+CD45RA− cells; 0.03 mg/kg): ~3 cells/μL
- Fold increase of CD34+CD90+CD45RA− cells (CD34+CD90+CD45RA− cells; the other doses): 2-3.5 fold
- Peak concentration of CD34+CD90+CD45RA− cells (CD34+CD90+CD45RA− cells; the other doses): 1-1.6 cells/μL
